Test results reported in a melting point compilation (Tetko et al.; mined from patent text by program, amines drawn as free bases though some values may be those of a salt).

For `C=Cc1ccc(-c2ccc3c4ccc5c6c(ccc(c7cccc2c73)c64)C(=O)N(c2c(C(C)C)cccc2C(C)C)C5=O)cc1`, the melting point was > 300 °C.
`O=C1NC(=O)C2(c3cccc([N+](=O)[O-])c3)CC12` (stereo not drawn) gave a melting point of 173 to 174 °C.
For `COC(=O)C1CC(C#N)(c2ccc(OC)c3oc(C(C)C)nc23)CCC1=O` (stereo not drawn), the melting point was 150 °C.
Molecule `Cc1nc(N)ncc1-c1ccncc1` has a melting point of 215 to 217 °C.
Molecule `Cc1cc(CCCOc2c(C)cc(-c3noc(C(N)=O)n3)cc2C)on1` has a melting point of 177 to 178 °C.
With `CCOC(=O)C1=C(C)NC(N)=C(C(=O)OCC)C1c1ccccc1C(F)(F)F` (stereo not drawn) the melting point was 156 °C.
Molecule `Cc1nc2c(c3ccccc3n3nnnc23)n1CC(C)(C)O` has a melting point of 202 to 205 °C.
In the case of `COc1cccc(C#Cc2ccncc2)c1`, the melting point is reported as 33 to 35 °C.
`COc1ccc(CONC(=O)c2nc(-c3ccc(Cl)c(OC)c3F)cc(N)c2Cl)cc1` gave a melting point of 142 to 145 °C.
Molecule `CC(C)(C)OC(=O)Nc1ccc(F)nc1` has a melting point of 112 to 113 °C.
`CC(C)(C)c1cc(C(=O)c2cccs2)cc(CN2CCOCC2)c1O` showed a melting point of 148 °C.
With `CN(C)CCNC(=O)c1cccc(-c2cccc3cn(Cc4cccc(C(F)(F)F)c4)nc23)c1` the melting point was 102 to 103 °C.
Work on `COc1cc(N=C=S)nc(OC)c1` yielded a melting point of 85 to 86 °C.
`O=C(NCc1ccccc1)c1ccnc(-n2cnn(CC3CC3)c2=O)c1` gave a melting point of 137 to 139 °C.
`CCCC[C@H]1[C@@H](O)CC[C@@]2(C)CC[C@@H]3C[C@]12OC3(C)C` showed a melting point of 47 to 48 °C.
`CN1CCN(C(=O)Cn2c(=O)sc3ncc(Cl)cc32)CC1` showed a melting point of 198 to 200 °C.
In the case of `CC[C@H](C)[C@H](NC(=O)[C@H](C)N(C(=O)OC(C)(C)C)C1CCCCC1)C(=O)N[C@@H](Cc1ccc(C(C)(C)C)cc1)[C@@H](O)[C@@H](O)CC(C)C`, the melting point is reported as 171 to 172 °C.
With `N#CC(NC(=O)c1ccccc1)n1cccn1` (stereo not drawn) the melting point was 169 to 174 °C.
Work on `CSC(=NCc1cccnc1)NC#N` yielded a melting point of 152 to 154 °C.
`CC(C)CNc1cc2nnnn2c2cnccc12` gave a melting point of 220 to 221 °C.
For `CCCC=Cc1c(C(C)C)nc(C(C)C)c(CO)c1-c1cccc(C)c1`, the melting point was 94 to 97 °C.
With `CCC1(CCI)C(=O)N2CC=CC(C(=O)OC)N2C1=O` (stereo not drawn) the melting point was 95 to 97 °C.
In the case of `CC(=NNc1nnc(-n2c(=S)[nH]c3ccccc32)s1)c1ccccn1`, the melting point is reported as > 280 °C.
`COC(=O)C1=C(C)NC(C)=C(C(=O)OCC2CCCO2)C1c1cccc(C#N)c1` (stereo not drawn) showed a melting point of 127 to 129 °C.
Molecule `COc1ccc(S(=O)(=O)Cl)cc1N1CCN(C(=O)C(F)(F)F)CC1` has a melting point of 125 to 127 °C.
In the case of `c1cc(-c2cnc(-c3ccc(-c4cnco4)o3)o2)nc(-c2cnc(-c3ccc(-c4cnco4)o3)o2)c1`, the melting point is reported as > 250 °C.
Work on `Cc1cc(C(=O)O)ccc1Sc1cc2c(cc1C)C(C)(C)CCC2(C)C` yielded a melting point of 217 to 218 °C.
For `O=c1[nH]ncc2c1c(O)nc1cc(Cl)c(Cl)cc12`, the melting point was > 350 °C.
For `NS(=O)(=O)c1ncccc1C1=NOCC1`, the melting point was 155 to 156 °C.
With `O=c1[nH]c2ccccc2c2cc(C(O)c3ccccc3)nn12` (stereo not drawn) the melting point was 231 to 233 °C.
`COC(=O)CCc1cc2cc(Cl)ccc2n1S(=O)(=O)c1cccc2c(C(=O)CN)cccc12` gave a melting point of 206 to 210 °C.
`COc1cc(OC)c2c(=O)[nH]c(-c3cc(C)c(OCCN4CCCC4)c(C)c3)nc2n1` gave a melting point of 228 to 230 °C.
Molecule `CCOC(=O)c1ccc(COCc2csc3nc(C(=O)NCc4cccc(CS(C)(=O)=O)c4)[nH]c(=O)c23)cc1` has a melting point of 227 to 229 °C.
With `C=CC(=O)OC(C#N)Cc1cccc(Cl)c1` (stereo not drawn) the melting point was 100 to 101 °C.
`CN1CCN(c2ccnc3c(NC(=O)c4ccccc4[N+](=O)[O-])cccc23)C1=O` showed a melting point of 226 to 228 °C.
With `Nc1ncc(CCCCCc2cccc3ccccc23)c(N)n1` the melting point was 128 to 133 °C.
`Cc1ccc(-n2nc(C)c(C(=O)O)n2)cc1` showed a melting point of 230 to 232 °C.
With `CNC(=S)C1(c2cccnc2)CCCCS1=O` (stereo not drawn) the melting point was 228 °C.
Work on `CC(C(=O)O)c1ccc(Nc2nc3ccccc3[nH]2)cc1` (stereo not drawn) yielded a melting point of 355 to 358 °C.
Work on `O=C(Nc1ccc(-n2nc(C(F)(F)F)cc2C(F)(F)F)cc1)c1cccc(CO)c1` yielded a melting point of 160 to 162 °C.
`O=C(Nc1nc(C(O)C(=O)O)cs1)OCC(Cl)(Cl)Cl` (stereo not drawn) gave a melting point of 135 to 136 °C.
For `Brc1cnc2nc(N3CCN(CCCCOc4ccccc4)CC3)nn2c1`, the melting point was 122 to 123 °C.
Molecule `COc1cc(-c2csc(C(N)=O)n2)cc(Cl)c1OC` has a melting point of 178 to 180 °C.
Work on `CCC(O)c1ccccc1CS(=O)(=O)NC(=O)Nc1nc(OC)cc(OC)n1` (stereo not drawn) yielded a melting point of 95 to 98 °C.
For `CC1(C)C=C(c2ccccn2)c2cc(C(F)(F)F)ccc2OC1`, the melting point was 90 °C.
Molecule `O[C@H]1c2cc(OC(c3ccccc3)c3ccccc3)ccc2OC[C@H]1Oc1cccnc1` (relative stereo) has a melting point of 169 to 170 °C.
For `CCOC(=O)c1cn(CC)c2nc(N3CCN(CCO)CC3)ncc2c1=O`, the melting point was 172 °C.
Work on `C[C@H](O)[C@@H](Nc1ccc(C#N)c(Cl)c1Cl)c1nnc(-c2ccccc2)o1` yielded a melting point of 156 °C.
`O=Cc1c(Cl)cc(O)c(O)c1Cl` gave a melting point of 213 to 215 °C.
Molecule `COC(=O)C1Cc2c([nH]c3ccccc23)C(c2cccc(OC)c2)N1` (stereo not drawn) has a melting point of 146 °C.
In the case of `Cc1ccnc2c1N=C(Cl)c1cccnc1N2C1CC1`, the melting point is reported as 196 to 198 °C.
With `CCCCCCCC(=O)N(C)Cc1ccc(OCc2ccccc2)c(-c2ccc(C=C3SC(=O)NC3=O)cc2)c1` the melting point was 93 °C.
Molecule `CCOCc1cc2cc(Br)ccc2oc1=O` has a melting point of 118 to 119 °C.
Work on `CCCn1c(=O)c2c(C(=O)OCCN(C)C)ncn2c2ccccc21` yielded a melting point of 115 to 118 °C.
With `Cn1c(Oc2ccc(N=C=S)cc2)nc2ccccc21` the melting point was 59 to 61 °C.
`Cc1c(CC(=O)O)c2cc(O)ccc2n1C(=O)c1ccccc1` gave a melting point of 186 to 188 °C.
`CC(=O)N1CC2CC2(c2ccccc2)C1` (stereo not drawn) gave a melting point of 63 to 65 °C.
In the case of `C(=Cc1cncn1Cc1ccccc1)CC(c1ccccc1)c1ccccc1`, the melting point is reported as 204 to 206 °C.
Work on `CCCCOC(=O)c1ccc(N2CCN(S(C)(=O)=O)CC2)cc1` yielded a melting point of 145 to 150 °C.
Work on `Nc1nc2nc(SCc3ccccc3)nc(Cl)c2s1` yielded a melting point of 217 to 218 °C.
`COc1ccc(-n2nnc(-c3ccc(C(F)(F)F)cc3F)c2N)cc1` showed a melting point of 165 to 166 °C.
Molecule `CC(=Cc1ccccc1)c1cc2c(cc1Cl)C(C)(C)CCC2(C)C` has a melting point of 114 °C.
`Cc1ccn(-c2cc(Nc3c(Cl)cc(Cl)cc3Cl)nc(C)n2)n1` showed a melting point of 245 to 247 °C.
With `CN(C)C(=O)Cn1c(-c2cccc(C(F)(F)F)c2)nc2cccnc21` the melting point was 136 to 138 °C.
Molecule `CN[C@@H]1Cc2ccccc2[C@H]1Nc1ccccc1CO` (relative stereo) has a melting point of 113 to 114 °C.
Molecule `CCCCCCCNC(=O)Nc1ccc(N2CCCC2)cc1C(=O)NCC1CCN(C(c2ccccc2)c2ccccc2)CC1` has a melting point of 182 to 184 °C.
For `COc1cc(C(C)(C)C)c(OC(C)=O)c(C(C)(C)C)c1CC(C)=O`, the melting point was 133 °C.
`CN1C2CCC1CC(c1n[nH]c3ccccc13)C2` (stereo not drawn) gave a melting point of 191 to 192 °C.
`Nc1ccc(F)c(-c2cccnc2)c1F` showed a melting point of 112 to 113 °C.
Work on `OCc1ccccc1CBr` yielded a melting point of 61 to 63 °C.
`CCOC(=O)/C=C/c1nc(COc2ccc(CCl)cc2OC)c(C)o1` showed a melting point of 107 to 108 °C.
Molecule `COC(=O)c1cc(N)ccc1Oc1ccccc1` has a melting point of 154 to 156 °C.
In the case of `C[C@H](CI)[C@H]1CC[C@H]2[C@@H](O[Si](C)(C)C(C)(C)C)CCC[C@]12C`, the melting point is reported as 40 to 41 °C.
